The test system of series [1] is human leukemia cell lines (855-2, H9, HL-60, K562). In words: [3H]thymidine uptake, human leukemia cell lines (FIG. 2). The series is classed as cell-based. The procedure:
FIGS. 2A-2F are composite of graphs displaying the inhibitory effects of the ADRPT ligands on (FIG. 2A) 855-2 cells (a cell line of human B-cell lineage acute lymphoblastic leukemia), (FIG. 2B) H9 cells (a cell line of human T-cell lineage acute lymphoblastic leukemia), (FIG. 2C) HL-60 cells (a cell line of human acute nonlymphoblastic leukemia) and (FIG. 2D) K562 cells (a cell line of human chronic myelogenous leukemia). These cells were cultured while under the influence of the growth factors in 10% fetal bovine serum (FCS), whereas in (FIG. 2E) and (FIG. 2F) the 855-2 cells were cultured in the presence of autocrine growth factor activity (AGF) or low molecular weight-B-cell growth factor (BCGF, a T-cell derived lymphokine), respectively.

The test system of the next series is H9 cells. Briefly: [3H]thymidine uptake, H9 cells. Particulars: 10% FCS. The class given is cell-based, human.
Another series relates to L1210 murine leukemia. In words: L1210 murine leukemia in vivo in BDF mice. Details: species or system mouse. The following applies: 2 mg/kg i.p. twice a day.
Series [2] deals with cancer cells (855-2 and HL-60 leukemia, D32, D37 and CRL 7712 glioblastoma, 186 medulla tumor, L1210 murine leukemia, MDA-468 human breast tumor). In words: Functions of cancer cells in absence or presence of compounds (FIGS. 4-9). The class given is cell-based.
Experimental: (§1) Experiments were performed in which the functions of various cancer cells (855-2 and HL-60 leukemia cells, D32, D37 and CRL 7712 glioblastoma cell lines, 186 medulla tumor cell line, L1210 murine leukemia cell line, MDA-468 human breast tumor cell line) and normal cells (neutrophil leukocytes and bone marrow or peripheral blood stream cells) were assessed in the absence or presence of the compounds.
The test system of the next series is HIV-1. In words: Anti-HIV action on stimulated human lymphoblasts, virus titer. The class given is cell-based. The following applies: 10 μM; 30 min exposure; virus alone 5.25. On the procedure:
VIII. Anti-HIV action of NOBP, NOBA and NOQ on stimulated human lymphoblasts
Exposure to the two drugs was only for 30 minutes at the commencement of viral infection, and drugs were never re-added. The results given in Table III provide the ID50 of HIV titer 10 days after infection of cell cultures with HIV.

The target of series [3] is Zn(HIV1-F1), N-terminal CCHC zinc finger of the HIV-1 NC protein (Human immunodeficiency virus type 1 lw12.3 isolate, UniProt Q70622). In words: NMR studies of zinc ejection from Zn(HIV1-F1). Particulars: 2 mM NOBA. The series is classed as biochemical. The procedure: The * and + symbols denote the aromatic proton signals of the zinc-coordinated and zinc-free His 9 residue. Upon completion of the reaction, reflected by complete ejection of zinc (t=90 min), 50% of the NOBA remained unreacted indicating a 1:1 reaction stoichiometry. NOBA (3-nitrosobenzamide), was synthesized described elsewhere in this application.
To determine if NOBA is capable of ejecting zinc from retroviral-type zinc fingers, NMR studies were performed on a peptide with amino acid sequence corresponding to the N-terminal CCHC zinc finger of the HIV-1 NC protein, Zn(HIV1-F1), South, et al., J. Am. Chem. Soc. 111:395-396 (1989), South, et al., Biochem Pharm. 40:123-129 (1990), Summers, et al., Biochemistry 29:329-340 (1990). NMR spectra of Zn(HIV-F1) were performed before and after the addition of NOBA (3-nitrosobenzamide). […] Chem Soc. 111:395-396 (1989), and three-dimensional structural studies have shown that the peptide adopts a structure that is essentially identical to the structure of the corresponding region in the intact NC protein, South, et al., Biochemistry 29:7786-7789 (1990). The down-field region of the ^1 H NMR spectrum showing the signals due to the aromatic proton of His 9 and Phe 2 is illustrated in FIG. 10 (bottom). […]

Series [4] is described as follows: PHA-PBL viability (MTT dye reduction). The class given is cell-based. Particulars: human, read-out: concentration tolerated by human lymphocytes without major changes in cell metabolism. The procedure:
PHA-PBL (10^6 /ml) were treated with increasing doses of NOBA for 24 hours in the presence of MTT substrate and the relative absorbance at 550 nm reflects the metabolic activity of the cells. The level of product formation in the absence of NOBA was considered to be 100% and all experimental values were normalized to that control value.
Experiments were performed in which the incubations with NOBA was carried out at 0°, 22°, and 37° C. […] In agreement with the negligible cytotoxic effect of C-nitroso drugs on non-tumor cells described elsewhere in this application, human lymphocytes tolerated NOBA up to 50 μM without major changes in cell metabolism, which was assayed by quantitative dye reduction as described in Mosaran, J. Imm. Methods 65:55-63 (1983).

The subject of another series is cells / HIV. In words: Anti-tumor / anti-HIV (biological) action, general statement.
In series [5] the test system is normal rhesus bone marrow stem cells. Briefly: CFU stem cell toxicity assay, FIG. 5A. The following applies: 10 μM.
Another series addresses calf thymus ADPRT (Bos taurus, UniProt P18493). Briefly: ADPRT polymerase activity inhibition/inactivation (I50).
Series [6] relates to normal cells (neutrophil leukocytes and bone marrow or peripheral blood stem cells). In words: Functions/viability of normal cells in absence or presence of compounds.
Experimental: as §1

Bounds are passed on as bounds.

Sequence of calf thymus ADPRT (P18493 whole entry): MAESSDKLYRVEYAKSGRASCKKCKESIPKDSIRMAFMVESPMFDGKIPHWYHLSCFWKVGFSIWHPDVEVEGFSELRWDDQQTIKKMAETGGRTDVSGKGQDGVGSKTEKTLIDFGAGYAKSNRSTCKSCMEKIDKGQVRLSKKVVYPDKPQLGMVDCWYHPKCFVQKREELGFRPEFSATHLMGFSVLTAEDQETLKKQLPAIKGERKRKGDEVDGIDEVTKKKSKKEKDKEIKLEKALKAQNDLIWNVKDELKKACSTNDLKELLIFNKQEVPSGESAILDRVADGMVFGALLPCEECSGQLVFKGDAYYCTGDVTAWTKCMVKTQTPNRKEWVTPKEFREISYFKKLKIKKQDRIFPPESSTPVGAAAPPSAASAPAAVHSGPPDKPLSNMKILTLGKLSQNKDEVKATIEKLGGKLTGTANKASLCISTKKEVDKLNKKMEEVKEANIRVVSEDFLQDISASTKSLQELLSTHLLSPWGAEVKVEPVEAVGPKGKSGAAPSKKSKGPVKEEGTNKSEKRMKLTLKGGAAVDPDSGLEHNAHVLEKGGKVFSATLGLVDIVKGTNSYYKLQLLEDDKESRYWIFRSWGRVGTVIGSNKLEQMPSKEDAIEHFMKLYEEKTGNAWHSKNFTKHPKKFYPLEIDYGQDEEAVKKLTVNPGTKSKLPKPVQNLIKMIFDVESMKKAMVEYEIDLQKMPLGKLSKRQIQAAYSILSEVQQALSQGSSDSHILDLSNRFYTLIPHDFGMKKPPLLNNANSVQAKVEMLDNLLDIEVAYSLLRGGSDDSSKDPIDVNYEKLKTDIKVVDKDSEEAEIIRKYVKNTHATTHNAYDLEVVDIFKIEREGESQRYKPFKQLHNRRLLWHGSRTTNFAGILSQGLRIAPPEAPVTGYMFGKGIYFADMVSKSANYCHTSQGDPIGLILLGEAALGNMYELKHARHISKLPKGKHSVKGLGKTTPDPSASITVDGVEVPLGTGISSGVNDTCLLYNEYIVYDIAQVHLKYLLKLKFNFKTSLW
Experimental for calf thymus ADPRT: The compounds of the subject invention were tested for their ability to inactivate the polymerase activity of adenosinediphosphoribosyl transferase (ADPRT). Assays were performed according to the method of Buki and Kun, Biochem. 27:5990-5995 (1988), using calf thymus ADPRT.
Assay conditions: ADPRT, 0.4 μg; coDNA, 4 μg; inhibitor diluted
between 0.8 and 600 μM, in 50 μl of 50 mM TrisHCl, 50 mM KCl, 5 mM
2mercaptoethanol, 0.5 mM EDTA, 0.1 mM NAD ([32Plabelled), pH 7.5.
Polymerization at 25° C. for 4 minutes.

What is called inhibition is the change of the read-out against control, counted positive when it falls. Low values mean a weak effect, high ones a strong effect. The IC50 is the concentration at which inhibition is half-maximal. A high value points to a need for much substance. For `NC(=O)c1cccc(N=O)c1` [NOBA, 3-nitrosobenzamide], the “inhibition of 3H-thymidine uptake, in words” value in [1] (10 μM, 855-2, H9, HL-60, K562 cells) is “powerfully inhibited 3H-thymidine uptake”. Besides, the “molar concentrations needed to inhibit 3H-thymidine uptake, in words” value in series [1] (each of the cell lines tested) is reported as “able to inhibit 3H-thymidine uptake in lower molar concentrations than the other compounds”. For the same compound, the “inhibition of thymidine uptake, H9” value in the series on H9 cells (250 μM) is “almost complete inhibition”. In addition, in the series on H9 cells (Homo sapiens, H9, 10 μM), the inhibition at 10 µM is around 75%. This compound also gave an inhibition at 100 µM in the series with H9 cells (Homo sapiens, H9, 100 μM) of around 85%. For the same compound, in the series on L1210 murine leukemia (6 consecutive days, untreated 10 days, 35 days = end of observation), the “life span of L1210-bearing BDF mice” value is recorded as 35 days. For the same compound, in the series with L1210 murine leukemia (6 days), the “in vivo chemotherapeutic response, in words” value is recorded as “highly significant in vivo chemotherapeutic response” and the “toxic effects in mice” value is “no toxic effects”. The “activity against tumor cells, in words” value in series [2] is listed as “highly effective (against tumor cells)”. Moreover, the “Virus Titer (log ID50), 10 days” value with HIV-1 was determined as 1.05 log ID50. In addition, the “time of complete ejection of zinc from Zn(HIV1-F1)” value in series [3] (1 mM Zn(HIV1-F1), D2O, pH* 6.2, 30° C.) is on record as 90 min. The NOBA remaining unreacted in series [3] (90 min) is listed as 50%. Moreover, in series [4], the MNTC at 24 h was at least 50 µM. For the same compound, in the series on cells / HIV, the “anti-tumor and anti-HIV activity, in words” value is “highly active as anti-tumor and anti-HIV molecules”. For the same compound, the “effectiveness after short exposure of cells” value in the series on cells / HIV (exposure as short as 30 minutes) is “effective even after exposure of cells for a period as short as 30 minutes”. Moreover, the “CFU stem cell toxicity, in words” value in [5] is “non-toxic”. The compound also registered an IC50 against calf thymus ADPRT of 15 µM. Also, the “effect on normal stem cell colony formation (FIG. 5), in words” value in [6] (anti-leukemic doses, soft agar, rhesus bone marrow or human peripheral blood stem cells) is reported as “minimal effect on normal cells”. In series [6] (tumor cell inhibitory concentrations), the “effect on viability of normal cells, in words” value was “not to affect adversely the viability of normal cells”.

Source of the values: US5473074A, “Adenosine diphosphoribose polymerase binding nitroso aromatic compounds useful as retroviral inactivating agents, anti-retroviral agents and anti-tumor agents-54” (priority 1992, dated 1995).
